Key:
5-LO = molecular target: T1, 5-LO (Homo sapiens, UniProt P09917); assay: Test a) in vitro heparinised human blood, A23187 challenge, LTB4 radioimmunoassay (indirect inhibition of 5-LO); type: cell-based
T1 construct: incubating a test compound with heparinised human blood; endogenous in cells; host or cells: heparinised human blood (blood cells; A23187 challenge)
T1 sequence (P09917 1-674): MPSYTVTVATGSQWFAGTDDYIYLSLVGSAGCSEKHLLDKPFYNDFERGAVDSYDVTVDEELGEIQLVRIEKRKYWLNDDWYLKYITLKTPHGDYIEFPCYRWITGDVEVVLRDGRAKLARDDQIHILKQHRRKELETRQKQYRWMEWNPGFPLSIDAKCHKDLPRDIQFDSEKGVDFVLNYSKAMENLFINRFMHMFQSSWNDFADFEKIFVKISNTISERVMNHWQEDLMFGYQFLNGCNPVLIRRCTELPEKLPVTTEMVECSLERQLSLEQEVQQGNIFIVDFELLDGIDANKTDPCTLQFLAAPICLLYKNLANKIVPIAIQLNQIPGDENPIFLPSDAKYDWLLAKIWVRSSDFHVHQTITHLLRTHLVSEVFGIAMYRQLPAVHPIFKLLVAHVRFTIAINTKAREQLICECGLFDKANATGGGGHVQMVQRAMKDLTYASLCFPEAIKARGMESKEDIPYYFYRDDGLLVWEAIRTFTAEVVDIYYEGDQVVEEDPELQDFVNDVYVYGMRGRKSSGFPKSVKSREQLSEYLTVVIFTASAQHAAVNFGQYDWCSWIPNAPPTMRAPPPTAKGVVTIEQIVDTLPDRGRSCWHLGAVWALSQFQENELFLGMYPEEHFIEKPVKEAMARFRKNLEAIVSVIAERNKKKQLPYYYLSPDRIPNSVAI
Protocol: a) An in vitro assay system involving incubating a test compound with heparinised human blood, prior to challenge with the calcium ionophore A^23187 and then indirectly measuring the inhibitory effects on 5-LO by assaying the amount of LTB4 using specific radioimmunoassays described by Carey and Forder (Prostaglandins, Leukotrienes Med., 1986, 22, 57; Prostaglandins, 1984, 28, 666; Brit. J. Pharmacol., 1985, 84, 34P) which involves the use of a protein-LTB4 conjugate produced using the procedure of Young et alia (Prostaglandins, 1983, 26(4), 605-613). The effects of a test compound on the enzyme cyclooxygenase (which is involved in the alternative metabolic pathway for arachidonic acid and gives rise to prostaglandins, thromboxanes and related metabolites) may be measured at the same time using the specific radioimmunoassay for thromboxane B2 (TxB2) described by Carey and Forder (see above). This test provides an indication of the effects of a test compound against 5-LO and also cyclooxygenase in the presence of blood cells and proteins. It permits the selectivity of the inhibitory effect on 5-LO or cyclooxygenase to be assessed.

[1] = system: LTB4 liberation induced by zymosan (5-LO); assay: Test c) in vivo zymosan-induced LTB4 liberation in rat subcutaneous air pouch, oral administration; settings: 3 h; test c)
Protocol: c) An in vivo system involving measuring the effects of a test compound administered orally against the liberation of LTB4 induced by zymosan within an air pouch generated within the subcutaneous tissue of the back of male rats. The rats are anaesthetised and air pouches are formed by the injection of sterile air (20 ml). A further injection of air (10 ml) is similarly given after 3 days. At 6 days after the initial air injection the test compound is administered (usually orally as the suspension produced when a solution of the test compound in dimethylsulphoxide is added to hydroxypropylmethylcellulose), followed by the intrapouch injection of zymosan (1 ml of a 1% suspension in physiological saline). After 3 hours the rats are killed, the air pouches are lavaged with physiological saline, and the specific radioimmunoassay described above is used to assay LTB4 in the washings. This test provides an indication of inhibitory effects against 5-LO in an inflammatory milieu.

| Structure (SMILES) | IC50 (5-LO) [µM] | ED50 [1] [mg/kg] |
| --- | --- | --- |
| COC1(c2cc(F)cc(Sc3ccc(C(C)N(O)C(N)=O)cc3)c2)CCOCC1 (stereo not drawn) [N-{4-[5-fluoro-3-(4-methoxytetrahydropyran-4-yl)phenylthio]-α-methylbenzyl)-N-hydroxyurea] | 0.57 | ~0.5 |
| CONC(C)c1ccc(Sc2cc(F)cc(C3(OC)CCOCC3)c2)cc1 (stereo not drawn) [N-{4-[5-fluoro-3-(4-methoxytetrahydropyran-4-yl)phenylthio]-α-methylbenzyl}-O-methylhydroxylamine] | 0.04 | ~0.5 |
| COC1(c2cc(F)cc(Sc3ccc(C(C)N(OC(C)=O)C(C)=O)cc3)c2)CCOCC1 (stereo not drawn) [O-acetyl-N-{4-[5-fluoro-3-(4-methoxytetrahydropyran-4-yl)phenylthio]-α-methylbenzyl}acetohydroxamic acid] | 0.15 | ~0.5 |

Reference: patent US5453439A, “Hydroxylamine derivatives” (Zeneca Limited, priority 1992, dated 1995)
